Data on 18 molecules can be found in PubChem BioAssay AID248 (DTP/NCI, 2004).

The subject of this test is L1210 leukemia ip in BDF1 mice, survival T/C. Description: NCI In Vivo Anticancer Drug Screen. Data for tumor model L1210 Leukemia (intraperitoneal) in B6D2F1 (BDF1) mice. As to conditions: endpoint: mean survival time, higher = longer survival. A digest of the protocol: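 Survival endpoint. Drug-treated group vs vehicle group, expressed as T divided by C. Tumor passaged by transplantation.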

Where [1] appears, read: dose: 75.0 mg/kg/injection, schedule: Q04DX003 (ip), vehicle: saline.
[2] abbreviates: dose: 150.0 mg/kg/injection, schedule: Q04DX003 (ip), vehicle: saline.
[3] abbreviates: dose: 300.0 mg/kg/injection, schedule: Q04DX003 (ip), vehicle: saline.
Where [4] appears, read: dose: 100.0 mg/kg/injection, schedule: Q01DX009 (ip), vehicle: saline.
The mark [5] stands for this setting: dose: 100.0 mg/kg/injection, schedule: Q04DX003 (ip), vehicle: saline.
The mark [6] stands for this setting: dose: 200.0 mg/kg/injection, schedule: Q01DX009 (ip), vehicle: saline.
[7] abbreviates: dose: 200.0 mg/kg/injection, schedule: Q04DX003 (ip), vehicle: saline.
[8] abbreviates: dose: 400.0 mg/kg/injection, schedule: Q01DX009 (ip), vehicle: saline.
Setting [9] is: dose: 400.0 mg/kg/injection, schedule: Q04DX003 (ip), vehicle: saline.
The mark [10] stands for this setting: dose: 50.0 mg/kg/injection, schedule: Q01DX009 (ip), vehicle: saline with Tween-80.
The mark [11] stands for this setting: dose: 100.0 mg/kg/injection, schedule: Q01DX009 (ip), vehicle: saline with Tween-80.
The mark [12] stands for this setting: dose: 100.0 mg/kg/injection, schedule: Q04DX003 (ip), vehicle: saline with Tween-80.
[13] abbreviates: dose: 200.0 mg/kg/injection, schedule: Q01DX009 (ip), vehicle: saline with Tween-80.
Where [14] appears, read: dose: 200.0 mg/kg/injection, schedule: Q04DX003 (ip), vehicle: saline with Tween-80.
[15] abbreviates: dose: 100.0 mg/kg/injection, schedule: Q01DX009 (ip), vehicle: Klucel (hydroxypropylcellulose) (HPC).
Setting [16] is: dose: 200.0 mg/kg/injection, schedule: Q01DX009 (ip), vehicle: Klucel (hydroxypropylcellulose) (HPC).
Where [17] appears, read: dose: 100.0 mg/kg/injection, schedule: Q04DX002 (ip), vehicle: saline.
Setting [18] is: dose: 200.0 mg/kg/injection, schedule: Q04DX002 (ip), vehicle: saline.
[19] abbreviates: dose: 400.0 mg/kg/injection, schedule: Q04DX002 (ip), vehicle: saline.

“And” between values parts separate entries of the source, which are not always exact repeats. Equal values may be shown once. Toxic doses and inconclusive results are not listed.

As for `COC(=O)c1ccc([N+](=O)[O-])c(OC)c1`, the T/C is 91 % of control (dose: 75.0 mg/kg/injection, schedule: Q01DX001 (ip), vehicle: saline); 94 % of control under setting [1]; 91 % of control (dose: 150.0 mg/kg/injection, schedule: Q01DX001 (ip), vehicle: saline); 108 % of control under setting [2]; 93 % of control (dose: 300.0 mg/kg/injection, schedule: Q01DX001 (ip), vehicle: saline); 101 % of control under setting [3].

As for `CCS(=O)(=O)CC`, the T/C was 101 % of control under setting [4]; 100 % of control under setting [5]; 106 % of control under setting [6]; 107 % of control under setting [7]; 97 % of control under setting [8]; 95 % of control under setting [9].

As to `O=C(Nc1ccccc1[N+](=O)[O-])C(=O)Nc1ccccc1[N+](=O)[O-]`, the T/C was 91 % of control under setting [10]; 86 % of control under setting [11]; 95 % of control under setting [12]; 94 % of control under setting [13]; 93 % of control under setting [14].

On to `c1ccc(CCSc2ncnc3nc[nH]c23)cc1`, for which the T/C is 94 % of control (dose: 31.3 mg/kg/injection, schedule: Q01DX Z (ip), vehicle: saline); 94 % of control (dose: 62.5 mg/kg/injection, schedule: Q01DX Z (ip), vehicle: saline); 122 % of control under setting [4]; 97 % of control (dose: 125.0 mg/kg/injection, schedule: Q01DX Z (ip), vehicle: saline); 100 % of control (dose: 175.0 mg/kg/injection, schedule: Q01DX001 (ip), vehicle: saline); 100 % of control and 101 % of control (dose: 250.0 mg/kg/injection, schedule: Q01DX Z (ip), vehicle: saline). Moreover, the T/C runs as follows: (dose: 265.0 mg/kg/injection, schedule: Q01DX001 (ip), vehicle: saline) 93 % of control; (dose: 340.0 mg/kg/injection, schedule: Q01DX009 (ip), vehicle: saline) 159 % of control; (dose: 400.0 mg/kg/injection, schedule: Q01DX001 (ip), vehicle: saline) 108 % of control; (dose: 500.0 mg/kg/injection, schedule: Q01DX Z (ip), vehicle: saline) 111 % of control; (dose: 600.0 mg/kg/injection, schedule: Q01DX001 (ip), vehicle: saline) 101 % of control; (dose: 1000.0 mg/kg/injection, schedule: Q01DX Z (ip), vehicle: saline) 117 % of control.

In the case of `CNc1nc(N(C)C)nc(C)c1[N+](=O)[O-]`, the T/C (dose: 50.0 mg/kg/injection, schedule: Q01DX009 (ip), vehicle: Klucel (hydroxypropylcellulose) (HPC)) was 91 % of control; the T/C under setting [15] was 98 % of control; the T/C under setting [16] was 105 % of control.

With `CC(=O)NC1(C(=O)O)CSSC1`, the T/C was 102 % of control (dose: 50.0 mg/kg/injection, schedule: Q01DX005 (ip), vehicle: saline); 100 % of control (dose: 100.0 mg/kg/injection, schedule: Q01DX005 (ip), vehicle: saline); 93 % of control (dose: 200.0 mg/kg/injection, schedule: Q01DX005 (ip), vehicle: saline); 102 % of control (dose: 400.0 mg/kg/injection, schedule: Q01DX005 (ip), vehicle: saline).

Turning to `CCN(CC)CC(O)c1ccnc2c([N+](=O)[O-])cc(OC)cc12` (stereo not given), the T/C by setting is: (dose: 75.0 mg/kg/injection, schedule: Q01DX001 (ip), vehicle: acetone) 106 % of control; (dose: 150.0 mg/kg/injection, schedule: Q01DX001 (ip), vehicle: acetone) 102 % of control; (dose: 300.0 mg/kg/injection, schedule: Q01DX001 (ip), vehicle: acetone) 91 % of control.

Turning to `Cc1cc(=O)[nH]cn1`, the T/C reads like this: under setting [5], 100 % of control; under setting [7], 112 % of control; under setting [9], 94 % of control.

For `C#CCSC(C)C`, the T/C (dose: 25.0 mg/kg/injection, schedule: Q04DX002 (ip), vehicle: saline) is 104 % of control; the T/C (dose: 50.0 mg/kg/injection, schedule: Q04DX002 (ip), vehicle: saline) was 104 % of control; the T/C under setting [17] is 96 % of control; the T/C under setting [18] was 104 % of control and 107 % of control; the T/C under setting [19] was 93 % of control.

For the molecule `CCOc1ccccc1NC(=O)c1c(Br)c(Br)c(Br)c(Br)c1C(=O)O`, the T/C under setting [15] is 102 % of control and the T/C under setting [16] is 102 % of control.

With `CCCCCCP(=O)(CCCCCC)C1CCCC1`, the T/C is, setting by setting: under setting [12], 91 % of control; under setting [14], 92 % of control.

Take `CCOC(=O)CC1c2nc3ccccc3cc2CN1C(=O)CCOCc1ccccc1` (stereo not given): the T/C is, setting by setting: (dose: 10.0 mg/kg/injection, schedule: Q04DX003 (ip), vehicle: alcohol) 92 % of control; (dose: 20.0 mg/kg/injection, schedule: Q04DX003 (ip), vehicle: alcohol) 92 % of control; (dose: 40.0 mg/kg/injection, schedule: Q04DX003 (ip), vehicle: alcohol) 100 % of control; (dose: 80.0 mg/kg/injection, schedule: Q04DX003 (ip), vehicle: alcohol) 96 % of control; (dose: 160.0 mg/kg/injection, schedule: Q04DX003 (ip), vehicle: alcohol) 89 % of control.

With `O=C(/C(=C\Cl)CBr)c1ccccc1`, the T/C reads like this: (dose: 12.5 mg/kg/injection, schedule: Q01DX009 (ip), vehicle: saline with Tween-80) 88 % of control; (dose: 25.0 mg/kg/injection, schedule: Q01DX009 (ip), vehicle: saline with Tween-80) 88 % of control; (dose: 25.0 mg/kg/injection, schedule: Q04DX003 (ip), vehicle: saline with Tween-80) 90 % of control; under setting [10], 90 % of control; (dose: 50.0 mg/kg/injection, schedule: Q04DX003 (ip), vehicle: saline with Tween-80) 92 % of control; under setting [12], 98 % of control.

`CCOC1=CC(=O)C(C)(CC=C(C)C)C(C)C1` (stereo not given): the T/C under setting [10] was 100 % of control, the T/C under setting [11] is 92 % of control and the T/C under setting [13] is 96 % of control.

Regarding `C=CCNC(=O)CS(=O)(=O)NCC=C`, the T/C (dose: 100.0 mg/kg/injection, schedule: Q04DX003 (ip), vehicle: carboxymethylcellulose (CMC)) is 95 % of control; the T/C (dose: 200.0 mg/kg/injection, schedule: Q04DX003 (ip), vehicle: carboxymethylcellulose (CMC)) is 96 % of control; the T/C (dose: 400.0 mg/kg/injection, schedule: Q04DX003 (ip), vehicle: carboxymethylcellulose (CMC)) was 117 % of control.

Take `Oc1cc(O)cc(O)c1`: the T/C reads like this: under setting [4], 96 % of control; under setting [17], 115 % of control; under setting [6], 100 % of control; under setting [18], 104 % of control; under setting [8], 100 % of control; under setting [19], 100 % of control.

Take `O=C(O)CCCCCN1C(=O)CCC1=O`: the T/C was 95 % of control under setting [1], 103 % of control under setting [2] and 92 % of control under setting [3].

Consider `[Cl][Sn]([c]1ccccc1)([c]1ccccc1)[c]1ccccc1`, for which the T/C (dose: 2.5 mg/kg/injection, schedule: Q01DX009 (ip), vehicle: Klucel (hydroxypropylcellulose) (HPC)) was 89 % of control; the T/C (dose: 5.0 mg/kg/injection, schedule: Q01DX001 (ip), vehicle: saline) was 95 % of control; the T/C (dose: 5.0 mg/kg/injection, schedule: Q01DX009 (ip), vehicle: Klucel (hydroxypropylcellulose) (HPC)) is 97 % of control and 106 % of control; the T/C (dose: 5.0 mg/kg/injection, schedule: Q04DX003 (ip), vehicle: Klucel (hydroxypropylcellulose) (HPC)) is 95 % of control; the T/C (dose: 10.0 mg/kg/injection, schedule: Q01DX001 (ip), vehicle: saline) was 101 % of control; the T/C (dose: 10.0 mg/kg/injection, schedule: Q04DX003 (ip), vehicle: Klucel (hydroxypropylcellulose) (HPC)) is 90 % of control. The T/C (dose: 20.0 mg/kg/injection, schedule: Q01DX001 (ip), vehicle: saline) is 95 % of control and the T/C (dose: 40.0 mg/kg/injection, schedule: Q01DX001 (ip), vehicle: saline) is 91 % of control.
